Several values for one entry are separate records, joined by “and”; a condition that tells them apart may be missing. Identical values can stand only once.
Key:
hippocampal neurons = test: Histological analysis of brain (cresyl violet) seven days after ICV infusion; type: in vivo, rats; settings: pretreatment with psychosine 125 nmoles; quisqualate 225 nmoles ICV; Figs. 7A and 7B
Experimental: (§1) The animals used in this experiment were male F344 rats (Charles River Breeding Laboratories). The animals were housed individually, exposed to a 12-hour light-dark cycle, and allowed free access to food and water. The animals weighed approximately 250 g at the beginning of each experiment and were weighed daily. In addition, the animals were habituated to handling before each experiment.
(§2) Before administering various compounds, the animals were anesthetized with sodium pentobarbital (50 mg/kg, i.p.) and positioned in a sterotaxic instrument. A 26 gauge cannula was inserted into the cerebral ventricle at the following co-ordinates: 1.0 mm posterior to bregma, 1.5 mm lateral to the midline, and 4.0 mm below the dorsal surface of the neocortex. Cannulas were capped and fixed in place with dental cement. One week after cannulation, 10 µl of each of the treatment drugs was infused, ICV (i.e. into the ventricals of the brain), via a micropump at a rate of 10 µl/min. For this procedure, the animals were lightly restrained and unanesthetized. Following administration of the compound, the infusion cannula remained in position for one minute, after which the permanent in situ cannula was capped.
(§3) The compounds administered were obtained from a commercial supplier (Sigma Chemical Co., St. Louis, MO) and dissolved in saline prior to injection. These compounds included quisqualate (injected at doses ranging from 100 nmole/10 µl to 1 µmole/10 µl), lysocerebroside, and lysophingomyelin (which were injected at doses of 25 nmoles/10 µl to 150 nmoles/10 µl).
Seven days after the compounds were administered, animals were sacrificed by transcardial perfusion with neutralized, buffered 10% formalin-saline. Their brains were removed, post-fixed overnight in 10% formalin-saline, and sectioned along the coronal plane (into 50 µm thick sections) on a freezing microtome. The sections were stained with cresyl violet to determine the extent of cellular destruction. […]
Given that high concentrations of metabotropic receptors are located in the hippocampus, and that the hippocampus is particularly vulnerable to the effects of a variety of insults including ischemia and hypoxia, this region was examined for evidence of neuronal degeneration due to glutamate excitoxicity.

male F344 rats = test: Behavioral analysis after ICV infusion (quisqualate excitotoxicity model); type: in vivo; settings: for effective dose (to prevent or reverse quisqualate effects): pilot testing, the higher doses appeared to be more reliable; for BEHAVIORAL RESPONSE: 30 minutes prior to quisqualate; for number of convulsions or spasms: pretreatment with Psychosine (125 nmoles) or Lysosphingomyelin (125 nmoles and 150 nmoles) ICV 30 minutes before quisqualate 225 nmoles, n = 6 per group, Fig. 8; for convulsant behavior, compound alone: psychosine at 125 nmoles, lysosphingomyelin at 125 nmoles and 150 nmoles, ICV without quisqualate; for behavioral and histological changes caused by quisqualate: rats pretreated with 125 nmoles of the lysosphingolipid
Experimental: as §1, §2, §3
Pilot studies identified several specific behavioral measures that could be used to indicate excessive activation of the metabotropic receptor (see Table 3). […] The experiments that follow were based on an analysis of these behaviors over a two hour period after administration of the compounds of the invention. Behavioral observation was carried out by two trained observers, who worked independently of one another and who were blind to the experimental groups. […] Frequency and duration means were computed by subtracting pre-infusion means from post-infusion means.
The experiment began one week after ICV cannulation. […] Following the baseline observation period, animals received the first of two ICV infusions (all infusions were of a 10 µl volume that was administered over a 1 minute period). For the first five groups listed above, this consisted of saline (10 µl/minute), for the following 3 groups the infusions were psychosine at 125 nmoles, lysosphingomyelin at 125 nmoles, or lysosphingomyelin at 150 nmoles, respectively. Thirty minutes later, all animals received the second infusion which, for the first five groups listed above, consisted of saline, quisqualate at 225 nmoles, psychosine at 125 nmoles, lysosphingomyelin at 125 nmoles, and lysosphingomyelin at 150 nmoles respectively. […] Following the second infusion animals were returned to their cages, and observed continuously over the subsequent 2 hours.

cortical neurons = test: Calcium ion signalling (fura 2) in intact cortical neurons; type: cell-based, chick; settings: neurons loaded to 150 ± 20 pmoles per mg protein; 10 µM glutamate agonist, 30 minutes
Experimental: Metabotropic receptor function was examined in intact neurons by assaying lysosphingolipid modulation of calcium ion signalling. Approximately 1 X 10^6 cortical neurons were cultured on rectangular L-polylysine-coated coverslips and loaded with lysocerebroside or lysosphingomyelin to a level of 150 ± 20 pmoles per mg protein. The neurons were returned to complete Ham's high glucose medium/DMEM (1:1, vol:vol) and infiltrated with 5 µM fura 2/AM (Molecular Probes, Eugene, OR). Fura 2 is a calcium chelator whose fluorescence absorbance shifts to shorter wavelength upon calcium ion binding is measurable in intact cells. A change in intraneuronal calcium ion concentration was monitored as a change in the fluorescence spectrum.
The neurons were exposed to 10 µM glutamate agonist (for example, ibotenate) for 30 minutes at 37°C. The coverslips were then transferred to quartz cuvettes in medium containing 250 µM sulfinpyrazone to prevent fura 2/AM diffusion. Fluorescence ratios were recorded in a Perkin-Elmer LS-5 Fluorescence Spectrometer thermostatted at 37°C at excitation wavelengths of 340 and 380 nm, and emission measurement at 500 nm. Calcium ion signalling in agonist-stimulated neurons was 3.0 ± 0.2 arbitrary units for ibotenate-exposed neurons.

| Compound | neuronal loss (CA1 pyramidal neurons) caused by quisqualate (hippocampal neurons) | effective dose (to prevent or reverse quisqualate effects) (male F344 rats; ICV, rats) | BEHAVIORAL RESPONSE (male F344 rats; Psychosine 25 nmoles + Quisqualate 200 moles, ICV) | BEHAVIORAL RESPONSE (male F344 rats; Psychosine 50 nmoles + Quisqualate 200 moles, ICV) | BEHAVIORAL RESPONSE (male F344 rats; Psychosine 100 nmoles + Quisqualate 200 nmoles, ICV) | BEHAVIORAL RESPONSE (male F344 rats; Psychosine 100 nmoles + Quisqualate 250 nmoles, ICV) | BEHAVIORAL RESPONSE (male F344 rats; Psychosine 125 nmoles + Quisqualate 225 nmoles, ICV) | BEHAVIORAL RESPONSE (male F344 rats; Psychosine 150 nmoles + Quisqualate 250 nmoles, ICV) | number of convulsions or spasms (male F344 rats) | BEHAVIORAL RESPONSE (male F344 rats; psychosine 125 moles + Quisqualate 200 moles, ICV) | convulsant behavior, compound alone (male F344 rats) | behavioral and histological changes caused by quisqualate (male F344 rats; ICV) | agonist-elicited calcium signalling in lysosphingolipid-loaded neurons (cortical neurons) | sedation (male F344 rats; Lysosphingomyelin 150 nmoles ICV, rats) | behavioral or neurotoxic effects of the compounds (male F344 rats; doses as high as 125 nmoles per animal, ICV, rats) | duration of teeth chattering, akinesia and mobilization, compared with quisqualate alone (male F344 rats; quisqualate 225 nmoles and lysophingomyelin 150 nmoles ICV, Fig. 9) |
| --- | --- | --- | --- | --- | --- | --- | --- | --- | --- | --- | --- | --- | --- | --- | --- | --- |
| CCCCCCCCCCCCC/C=C/[C@@H](O)[C@@H](N)CO[C@@H]1O[C@H](CO)[C@H](O)[C@H](O)[C@H]1O [psychosine] | prevents the neuronal loss caused by quisqualate | 125 nmol | Moderate convulsions, teeth chattering, akinesia and hyperactivity | Moderate convulsions, teeth chattering, akinesia and hyperactivity | Almost complete attenuation of Quisqualate response, some teeth chattering post-injection | Moderate convulsions, teeth chattering, akinesia. Quisqualate markedly reduced compared to typical Quisqualate response at this dose. | Complete attenuation of Quisqualate response | Almost complete attenuation of Quisqualate response | significantly (p<01) attenuated | Complete attenuation of Quisqualate response | displayed no convulsant behavior | absent | no calcium signalling measurably over controls | – | – | – |
| CCCCCCCCCCCCC/C=C/[C@@H](O)[C@@H](N)COP(=O)([O-])OCC[N+](C)(C)C [lysosphingomyelin, sphingosyl phosphorylcholine] | – | 125 nmol and 150 nmol | – | – | – | – | – | – | significantly (p<01) attenuated | – | displayed no convulsant behavior | absent | no calcium signalling measurably over controls | mild sedation | no behavioral or neurotoxic effects were observed | quisqualate alone spent significantly (p< .01) more time engaged in these behaviors |
